From patent publication US6506790B1, “Compounds and methods” (SmithKline Beecham Corporation, priority 1999, dated 2003)

Q: Which melting point does the source give for `CNC1CC(C)(C)Oc2cc3c(cc21)C(c1cccc(Cl)c1)CC(C)(C)O3` (stereo not shown) [Example 4, 6-(3-chlorophenyl)-3,4,7,8-tetrahydro-N-methyl-2,2,8,8-tetramethyl-2H,6H-benzo[1,2-b:5,4-b′]dipyran-4-amine] here?
A: 190 to 192 °C
